Tests used:
[1] = tested on: Human Pancreatic Cancer Cell Panc-1 Spheroids; experiment: ALDH activity (ALDEFLUOR, flow cytometry) in Panc-1 spheroids; format: cell-based; conditions: suspension culture with Am80 for 1 week
Protocol: As shown in Example 1, Am80 suppresses formation of cell clusters of the pancreatic cancer cell line in the suspension-culture state, and this might be due to a decrease in the number of the stem cells that act as the seeds of the cell clusters. It is known that the activity of aldehyde dehydrogenase (ALDH) is high in hematopoietic stem cells and progenitor cells, but low in differentiated cells. In view of this, a precursor Bodipy-aminoacetaldehyde (ALDEFLUOR, Stem Cell Technologies) was added to pancreatic cancer cells prepared by performing suspension culture in the presence of Am80 for 1 week, and the number of cells positive for the fluorescence of Bodipy-aminoacetate produced by metabolism by the aldehyde dehydrogenase activity was analyzed by quantification by flow cytometry.

[2] = tested on: CD133-positive human pancreatic cancer stem cells; experiment: Cell migration in Boyden chambers; format: cell-based; conditions: Am80 1 μM, CD133-positive fraction
Protocol: Pancreatic cancer cells containing pancreatic cancer stem cells were separated into CD133-positive cells and negative cells using magnetic antibody beads, and Am80 was added at 1 μM to the fractions, followed by culturing the cells in Boyden chambers and then observing the cells migrated into the back side of the membrane.

[3] = tested on: human pancreatic cancer cells containing pancreatic cancer stem cells; experiment: Liver metastasis after transplantation to the pancreas of nude mice; format: in vivo; conditions: Am80 3 mg/kg/day for 1 month
Protocol: Pancreatic cancer cells (1×10^6 cells) containing pancreatic cancer stem cells were transplanted to the pancreas of nude mice, and the size of a tumor formed by metastasis to the liver was measured 1 month later. Am80 was administered at 3 mg/kg/day for 1 month.

[4] = tested on: Human Pancreatic Cancer Stem Cells Transplanted to Nude Mice; experiment: Ratio of pancreatic cancer stem cells in removed tumor (anti-CD133 flow cytometry); format: in vivo; conditions: Am80 3 mg/kg/day for 1 month, vs control
Protocol: Pancreatic cancer cells (1×10^6 cells) containing pancreatic cancer stem cells were subcutaneously transplanted to nude mice. Mice in which tumor formation was found 2 weeks later were subjected to administration of Am80 for 1 month at 3 mg/kg/day. Thereafter, the tumor was removed, and the tumor cells were treated by trypsin, followed by measuring the ratio of pancreatic cancer stem cells by flow cytometry using an anti-CD133 antibody.

[5] = tested on: Human pancreatic cancer cells; experiment: Sphere formation of gemcitabine-treated pancreatic cancer cells (colony count); format: cell-based; conditions: cells cultured with gemcitabine (10 nM) 1 week, then Am80 1 week
Protocol: Human pancreatic cancer cells were cultured in the suspension-culture state in the presence of gemcitabine (10 nM) for 1 week. Thereafter, Am80 was added to the culture, and suspension culture was carried out for 1 week, followed by counting the number of colonies formed.

[6] = tested on: human breast cancer cell line MCF-7; experiment: Growth inhibition of MCF-7 in vitro; format: cell-based; conditions: Homo sapiens, MCF7; MCF-7, 96 hours of exposure, RPMI1640 with 2% FBS
Protocol: (§1) A human breast cancer cell line MCF-7, containing cells positive for cancer stem cell markers, was cultured in RPMI1640 medium supplemented with 2% FBS, and the growth inhibitory action by the combination of Am80 and 5-AZ was studied. The IC50 values of the agents determined by 96 hours of the exposure were 1 μM and 20 μM, respectively. Thus, in order to study the growth inhibitory action, Am80 was used within the concentration range of 0.125 μM to 1 μM with a common ratio of 2, and 5-AZ was used within the concentration range of 2.5 μM to 20 μM with a common ratio of 2. In cases of use of these agents in combination, the growth inhibitory action was studied using these concentrations.

[7] = tested on: human breast cancer cell line MCF-7; experiment: Tumor volume, MCF-7/nude mice; format: in vivo
Protocol: A tumor piece of a human breast cancer cell line MCF-7 containing cells positive for cancer stem cell markers was subcutaneously transplanted to the dorsal part of each of 6-week-old female BALB/cAJc1-nu nude mice (5 mice/group) using a trocar needle. At the time when the tumor volume reached 100 to 200 mm^3, the administration was started. Am80 was orally administered once a day at a dose of 1 mg/kg for 21 continuous days, and DXL was intravenously administered at a dose of 3.5 mg/kg from Day 1, 3 times at intervals of 4 days. In the combination group, the agents were administered at the same doses as, and by the same administration methods as, those in the cases of administration of each single agent. Measurement of the tumor diameter was carried out until the next day of the completion of the administration (Day 22). The longitudinal diameter and the transverse diameter of the tumor were measured using a caliper, and the tumor volume (mm^3) was determined according to the following formula: longitudinal diameter×transverse diameter^2/2. In the control group, physiological saline was intraperitoneally administered from Day 1, 3 times at intervals of 4 days.

[8] = tested on: human prostate cancer cell line LNCaP; experiment: Growth inhibition of LNCaP in vitro; format: cell-based; conditions: Homo sapiens, 96 hours of exposure, RPMI1640 with 10% FBS
Protocol: as §1, with “prostate” for “breast”, “LNCaP,” for “MCF-7,”, “10%” for “2%”, “The IC50 values of the agents determined by 96 hours of the exposure were 1 μM and 20 μM, respectively.” left out, “1.56” for “2.5”, “12.5” for “20”

With CC1(C)CCC(C)(C)c2cc(NC(=O)c3ccc(C(=O)O)cc3)ccc21 [Am80, tamibarotene] the “ALDH activity (ALDH-positive cells)” value [1] was “concentration-dependent decrease”, the cell migration ability [2] was “remarkable suppression” and the “metastasis of the pancreatic cancer (size of tumor formed by metastasis to the liver)” value [3] was “could be suppressed compared to the control”. The “ratio of pancreatic cancer stem cells (CD133) in tumor” value [4] was “action to suppress pancreatic cancer stem cells in vivo”, the “sphere formation (number of colonies formed)” value [5] was “in vitro inhibitory effect on sphere formation” and the IC50 [6] was 1000 nM. The “tumor volume Day 1” value ([7]; Am80 1 mg/kg oral daily 21 days, DXL 3.5 mg/kg i.v. 3 times at intervals of 4 days, Day 1) was 155.3 mm^3, the “tumor volume Day 5” value ([7]; Am80 1 mg/kg oral daily, DXL 3.5 mg/kg i.v., Day 5) was 151.3 mm^3 and the “tumor volume Day 9” value ([7]; Am80 1 mg/kg oral daily, DXL 3.5 mg/kg i.v., Day 9) was 155.5 mm^3. For the same compound, the “tumor volume Day 13” value ([7]; Am80 1 mg/kg oral daily, DXL 3.5 mg/kg i.v., Day 13) was 208.9 mm^3, the “tumor volume Day 17” value ([7]; Am80 1 mg/kg oral daily, DXL 3.5 mg/kg i.v., Day 17) was 229.4 mm^3 and the “tumor volume Day 22” value ([7]; Am80 1 mg/kg oral daily, DXL 3.5 mg/kg i.v., Day 22) was 261.4 mm^3. For the same compound, the IC50 [8] was 2000 nM.
